{"source": "patent US9884818B2", "about": "“Sulphamoylpyrrolamide derivatives and the use thereof as medicaments for the treatment of hepatitis B” (Janssen Sciences Ireland UC, priority 2013, dated 2018)", "key": {"[1]": {"test_system": "HBV", "test": "Anti-HBV activity, HepG2.117 inducibly HBV producing cell line (Tet-off), intracellular HBV DNA by realtime PCR", "assay_type": "cell-based", "conditions": "HepG2.117 cells, 3 days of treatment, intracellular HBV DNA; read-out: HepG2 117 EC50"}, "[2]": {"test_system": "HepG2 cells", "test": "Cytotoxicity in HepG2 cells, Resazurin viability assay", "conditions": "read-out: HepG2 4 days CC50; HepG2 cells, incubated for 4 days, Resazurin assay"}, "[3]": {"test_system": "HBV", "test": "Anti-HBV activity, HepG2.2.15 stable transfected cell line, HBV DNA from secreted virions by realtime PCR", "assay_type": "cell-based", "conditions": "HepG2.2.15 cells, 6 days of treatment, HBV DNA from secreted virions; read-out: HepG2 2.15 EC50"}}, "data": [{"smiles": "Cn1cc(S(=O)(=O)NC2CCCC2(F)F)cc1C(=O)Nc1ccc(F)c(Cl)c1F", "note": "(single isomer, unassigned) [Compound 236b, N-(3-Chloro-2,4-difluorophenyl)-4-{[2,2-difluorocyclopentyl]sulfamoyl}-1-methyl-1H-pyrrole-2-carboxamide]", "values": [{"measurement": "EC50", "setting": "[1]", "result": 50, "unit": "nM"}, {"measurement": "CC50", "setting": "[2]", "result": "> 25000", "unit": "nM"}, {"measurement": "EC50", "setting": "[3]", "result": 60, "unit": "nM"}]}]}
